# In ChEMBL document CHEMBL3045763, “Synthesis and evaluation of anti-proliferative activity of 1,4-disubstituted phthalazines” (Med Chem Res, 2012):
# Test system: MCF7
# Test: Antiproliferative activity against Homo sapiens (human) MCF7 cells after 72 hr by SRB assay
# Format: functional, cell-based
# Settings: MCF7, 72 h
row,Structure (SMILES),IC50 [µM]
1,COc1ccc(N2CCN(c3nnc(-c4ccc(Br)cc4)c4ccccc34)CC2)cc1,17.5
2,CCOc1ccccc1N1CCN(c2nnc(-c3ccc(Br)cc3)c3ccccc23)CC1,4.77
3,Brc1ccc(-c2nnc(N(Cc3ccccc3)Cc3ccccc3)c3ccccc23)cc1,4.8
4,Brc1ccc(-c2nnc(Sc3nc4ccccc4s3)c3ccccc23)cc1,2.3
5,Clc1cccc(Cl)c1Nc1nnc(-c2ccc(Br)cc2)c2ccccc12,1.7
6,Brc1ccc(-c2nnc(Nc3nccs3)c3ccccc23)cc1,1.4
7,Clc1ncccc1Nc1nnc(-c2ccc(Br)cc2)c2ccccc12,1.7
8,COc1ccccc1N1CCN(c2nnc(-c3ccc(Br)cc3)c3ccccc23)CC1,8.6

# Next, values leading:
row,IC50 [µM],Structure (SMILES)
1,1.9,Brc1ccc(-c2nnc(N3CCOCC3)c3ccccc23)cc1
2,9.1,Brc1ccc(-c2nnc(N3CCCCC3)c3ccccc23)cc1
3,1.5,CN1CCN(c2nnc(-c3ccc(Br)cc3)c3ccccc23)CC1
4,9.7,Brc1ccc(-c2nnc(N3CCN(c4ccccc4)CC3)c3ccccc23)cc1
